Measurements taken from patent publication US12281122B1, “PI3K inhibitors” (Cogent Biosciences, Inc., priority 2023, dated 2025).

How the values were obtained:
[1] = tested on: T47D (PI3Kα-H1047R) cell line; experiment: HTRF phospho-AKT(S473) cell assay in T47D cells; assay type: cell-based, human
Outline: (§1)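 T47D: RPMI + 10% FBS + 0.2 units/mL insulin, top 5 μM. SKBR3: McCoy's 5A + 10% FBS, top 10 μM, 70 ng/ml PDGF-BB last 15 min. Both: 12-pt 1:3, 2 h, 37° C, max 0.5% DMSO; HTRF pAKT(S473); IC50.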

[2] = tested on: SKBR3 (PI3Kα-Wild Type) cell line; experiment: HTRF phospho-AKT(S473) cell assay in SKBR3 cells; assay type: cell-based, human
Outline: as §1

[3] = Homo sapiens; T47D (PI3Kα-H1047R) cells, HTRF phospho-AKT(S473), 2 hours compound incubation
[4] = Homo sapiens, SK-BR-3; SKBR3 (PI3Kα-Wild Type) cells, HTRF phospho-AKT(S473), 2 hours compound incubation, PDGF-BB stimulated
[5] = Homo sapiens; HTRF phospho-AKT(S473), T47D (PI3Kα-H1047R) cells, 2 hours compound incubation
[6] = Homo sapiens, SK-BR-3; HTRF phospho-AKT(S473), SKBR3 (PI3Kα-Wild Type) cells, 2 hours compound incubation, PDGF-BB stimulated

Row | SMILES | IC50 [1, 3] | IC50 [2, 4] | IC50 [1, 5] | IC50 [2, 6]
1 | Cc1cc([C@@H](C)Nc2ccc(Cl)nc2C(=O)NS(C)(=O)=O)c2nc(N3CCN(c4ccc(CC#N)cn4)CC3)n(C)c(=O)c2c1 [Compound 206, (R)-6-chloro-3-((1-(2-(4-(5-(cyanomethyl)pyridin-2-yl)piperazin-1-yl)-3,6-dimethyl-4-oxo-3,4-dihydroquinazolin-8-yl)ethyl)amino)-N-(methylsulfonyl) picolinamide] | < 250 nM | 1 to 5 µM |  | 
2 | Cc1cc([C@@H](C)Nc2ccc(Cl)nc2C(=O)NS(C)(=O)=O)c2nc(N3Cc4cn(C(F)F)nc4C3)n(C)c(=O)c2c1 [Compound 176, (R)-6-chloro-3-((1-(2-(2-(difluoromethyl)-2,6-dihydropyrrolo[3,4-c]pyrazol-5(4H)-yl)-3,6-dimethyl-4-oxo-3,4-dihydroquinazolin-8-yl)ethyl)amino)-N-(methylsulfonyl) picolinamide] | < 250 nM | 1 to 5 µM |  | 
3 | Cc1cc([C@@H](C)Nc2ccc(Cl)nc2C(=O)NS(C)(=O)=O)c2nc(N3C[C@H]4C[C@@H]3CN4c3ccccn3)n(C)c(=O)c2c1 [Compound 603, 6-chloro-3-(((R)-1-(3,6-dimethyl-4-oxo-2-((1R,4R)-5-(pyridin-2-yl)-2,5-diazabicyclo [2.2.1]heptan-2-yl)-3,4-dihydroquinazolin-8-yl)ethyl)amino)-N-(methylsulfonyl) picolinamide] |  |  | 500 to 1000 nM | ≥ 5 µM
4 | Cc1cc([C@@H](C)Nc2ccc(Cl)nc2C(=O)NS(C)(=O)=O)c2nc(C3(c4ccccc4)CC3)n(C)c(=O)c2c1 [Compound 830, (R)-6-chloro-3-((1-(3,6-dimethyl-4-oxo-2-(1-phenylcyclopropyl)-3,4-dihydroquinazolin-8-yl)ethyl)amino)-N-(methylsulfonyl) picolinamide] |  |  | 250 to 500 nM | ≥ 5 µM
5 | Cc1cc([C@@H](C)Nc2ccc(Cl)nc2C(=O)NS(C)(=O)=O)c2nc(N3CCc4oncc4C3)n(C)c(=O)c2c1 [Compound 276, (R)-6-chloro-3-((1-(2-(6,7-dihydroisoxazolo[4,5-c]pyridin-5(4H)-yl)-3,6-dimethyl-4-oxo-3,4-dihydroquinazolin-8-yl)ethyl)amino)-N-(methylsulfonyl) picolinamide] | < 250 nM | 1 to 5 µM |  | 
6 | Cc1cc([C@@H](C)Nc2ccc(Cl)nc2C(=O)NS(C)(=O)=O)c2nc(N3Cc4cn(C5CC(F)(F)C5)nc4C3)n(C)c(=O)c2c1 [Compound 693, (R)-6-chloro-3-((1-(2-(2-(3,3-difluorocyclobutyl)-2,6-dihydropyrrolo[3,4-c]pyrazol-5(4H)-yl)-3,6-dimethyl-4-oxo-3,4-dihydroquinazolin-8-yl)ethyl)amino)-N-(methylsulfonyl) picolinamide] |  |  | < 250 nM | 1 to 5 µM
7 | Cc1cc([C@@H](C)Nc2ccc(Cl)nc2C(=O)NS(C)(=O)=O)c2nc(N3CCC(c4ncnn4C(C)C)CC3)n(C)c(=O)c2c1 [Compound 719, (R)-6-chloro-3-((1-(2-(4-(1-isopropyl-1H-1,2,4-triazol-5-yl)piperidin-1-yl)-3,6-dimethyl-4-oxo-3,4-dihydroquinazolin-8-yl)ethyl)amino)-N-(methylsulfonyl) picolinamide] |  |  | 250 to 500 nM | ≥ 5 µM
8 | Cc1cc([C@@H](C)Nc2ccc(Cl)nc2C(=O)NS(C)(=O)=O)c2nc(N3C[C@@H]4[C@H](C3)[C@H]4n3nccc3C)n(C)c(=O)c2c1 [Compound 417, 6-chloro-3-(((R)-1-(3,6-dimethyl-2-((1R,5S,6S)-6-(5-methyl-1H-pyrazol-1-yl)-3-azabicyclo[3.1.0]hexan-3-yl)-4-oxo-3,4-dihydroquinazolin-8-yl)ethyl)amino)-N-(methylsulfonyl) picolinamide] | < 250 nM | 1 to 5 µM |  | 
9 | Cc1cc([C@@H](C)Nc2ccc(Cl)nc2C(=O)NS(C)(=O)=O)c2nc(N3C[C@@H]4[C@H](C3)[C@H]4c3ncc(C)o3)n(C)c(=O)c2c1 [Compound 653, 6-chloro-3-(((R)-1-(3,6-dimethyl-2-((1R,5S,6R)-6-(5-methyloxazol-2-yl)-3-azabicyclo[3.1.0]hexan-3-yl)-4-oxo-3,4-dihydroquinazolin-8-yl)ethyl)amino)-N-(methylsulfonyl) picolinamide] |  |  | 250 to 500 nM | 1 to 5 µM
10 | Cc1cc([C@@H](C)Nc2ccc(Cl)nc2C(=O)NS(C)(=O)=O)c2nc([C@@H]3CCCN(c4cc[nH]n4)C3)n(C)c(=O)c2c1 (relative stereo) [Compound 322, 3-(((R)-1-(2-((R*)-1-(1H-pyrazol-3-yl)piperidin-3-yl)-3,6-dimethyl-4-oxo-3,4-dihydroquinazolin-8-yl)ethyl)amino)-6-chloro-N-(methylsulfonyl) picolinamide] | < 250 nM | 1 to 5 µM |  | 
11 | Cc1cc([C@@H](C)Nc2ccc(Cl)nc2C(=O)NS(C)(=O)=O)c2nc(N3C[C@@H]4[C@H](C3)[C@H]4c3nnc(C)s3)n(C)c(=O)c2c1 [Compound 598, 6-chloro-3-(((R)-1-(3,6-dimethyl-2-((1R,5S,6R)-6-(5-methyl-1,3,4-thiadiazol-2-yl)-3-azabicyclo[3.1.0]hexan-3-yl)-4-oxo-3,4-dihydroquinazolin-8-yl)ethyl)amino)-N-(methylsulfonyl) picolinamide] |  |  | < 250 nM | 1 to 5 µM
12 | Cc1cnc(O[C@@H]2CCN(c3nc4c([C@@H](C)Nc5ccc(Cl)nc5C(=O)NS(C)(=O)=O)cc(C)cc4c(=O)n3C)C2)nc1 [Compound 613, 6-chloro-3-(((R)-1-(3,6-dimethyl-2-((R)-3-((5-methylpyrimidin-2-yl)oxy)pyrrolidin-1-yl)-4-oxo-3,4-dihydroquinazolin-8-yl)ethyl)amino)-N-(methylsulfonyl) picolinamide] |  |  | < 250 nM | 1 to 5 µM
13 | Cc1cc([C@@H](C)Nc2ccc(Cl)nc2C(=O)NS(C)(=O)=O)c2nc(N3CCC(c4ccn(C)n4)CC3)n(C3CC3)c(=O)c2c1 [Compound 372, (R)-6-chloro-3-((1-(3-cyclopropyl-6-methyl-2-(4-(1-methyl-1H-pyrazol-3-yl)piperidin-1-yl)-4-oxo-3,4-dihydroquinazolin-8-yl)ethyl)amino)-N-(methylsulfonyl) picolinamide] | < 250 nM | 1 to 5 µM |  | 
14 | Cc1cc([C@@H](C)Nc2ccc(Cl)nc2C(=O)NS(C)(=O)=O)c2nc(N3C[C@@H]4[C@H](C3)[C@H]4c3ccnn3C3CC3)n(C)c(=O)c2c1 [Compound 460, 6-chloro-3-(((R)-1-(2-((1R,5S,6R)-6-(1-cyclopropyl-1H-pyrazol-5-yl)-3-azabicyclo[3.1.0]hexan-3-yl)-3,6-dimethyl-4-oxo-3,4-dihydroquinazolin-8-yl)ethyl)amino)-N-(methylsulfonyl) picolinamide] |  |  | < 250 nM | 1 to 5 µM
15 | Cc1cc([C@@H](C)Nc2ccc(Cl)nc2C(=O)NS(C)(=O)=O)c2nc(-c3ccc(-c4noc(C)n4)nc3)n(C)c(=O)c2c1 [Compound 303, (R)-6-chloro-3-((1-(3,6-dimethyl-2-(6-(5-methyl-1,2,4-oxadiazol-3-yl)pyridin-3-yl)-4-oxo-3,4-dihydroquinazolin-8-yl)ethyl)amino)-N-(methylsulfonyl) picolinamide] | 250 to 500 nM | 1 to 5 µM |  | 
16 | Cc1cc([C@@H](C)Nc2ccc(Cl)nc2C(=O)NS(C)(=O)=O)c2nc(N3C[C@@H]4[C@H](C3)[C@H]4c3noc(C)n3)n(C)c(=O)c2c1 [Compound 465, 6-chloro-3-(((R)-1-(3,6-dimethyl-2-((1R,5S,6R)-6-(5-methyl-1,2,4-oxadiazol-3-yl)-3-azabicyclo[3.1.0]hexan-3-yl)-4-oxo-3,4-dihydroquinazolin-8-yl)ethyl)amino)-N-(methylsulfonyl) picolinamide] |  |  | < 250 nM | 1 to 5 µM
17 | Cc1cc([C@@H](C)Nc2ccc(Cl)nc2C(=O)NS(C)(=O)=O)c2nc(N3C[C@@H]4[C@H](C3)[C@H]4c3cnc(C4CC4)nc3)n(C)c(=O)c2c1 [Compound 485, 6-chloro-3-(((R)-1-(2-((1R,5S,6S)-6-(2-cyclopropylpyrimidin-5-yl)-3-azabicyclo[3.1.0]hexan-3-yl)-3,6-dimethyl-4-oxo-3,4-dihydroquinazolin-8-yl)ethyl)amino)-N-(methylsulfonyl) picolinamide] |  |  | 250 to 500 nM | 1 to 5 µM
18 | Cc1cc([C@@H](C)Nc2ccc(Cl)nc2C(=O)NS(C)(=O)=O)c2nc(N3CCC(n4ncc5cc(N)ccc54)CC3)n(C)c(=O)c2c1 [Compound 278, (R)-3-((1-(2-(4-(5-amino-1H-indazol-1-yl)piperidin-1-yl)-3,6-dimethyl-4-oxo-3,4-dihydroquinazolin-8-yl)ethyl)amino)-6-chloro-N-(methylsulfonyl) picolinamide] | < 250 nM | 1 to 5 µM |  | 
19 | Cc1cc([C@@H](C)Nc2ccc(Cl)nc2C(=O)NS(C)(=O)=O)c2nc(N3Cc4cccc(-c5cnn(C)c5)c4C3)n(C)c(=O)c2c1 [Compound 273, (R)-6-chloro-3-((1-(3,6-dimethyl-2-(4-(1-methyl-1H-pyrazol-4-yl)isoindolin-2-yl)-4-oxo-3,4-dihydroquinazolin-8-yl)ethyl)amino)-N-(methylsulfonyl) picolinamide] | < 250 nM | ≥ 5 µM |  | 
20 | Cc1cc([C@@H](C)Nc2ccc(Cl)nc2C(=O)NS(C)(=O)=O)c2nc(N3C[C@@H]4[C@H](C3)[C@H]4c3cc(C)nn3C3CC3)n(C)c(=O)c2c1 [Compound 568, 6-chloro-3-(((R)-1-(2-((1R,5S,6R)-6-(1-cyclopropyl-3-methyl-1H-pyrazol-5-yl)-3-azabicyclo[3.1.0]hexan-3-yl)-3,6-dimethyl-4-oxo-3,4-dihydroquinazolin-8-yl)ethyl)amino)-N-(methylsulfonyl) picolinamide] |  |  | 250 to 500 nM | 1 to 5 µM
